From ChEMBL document CHEMBL1148357, “Novel dicationic imidazo[1,2-a]pyridines and 5,6,7,8-tetrahydro-imidazo[1,2-a]pyridines as antiprotozoal agents” (J Med Chem, 2004)

Legend:
Plasmodium falciparum = experiment: In vitro inhibitory activity for Plasmodium falciparum; type: functional, organism-based
Nucleic Acid = experiment: In vitro binding affinity towards Poly (dA-dT)2; type: nucleic-acid assay
Mus musculus [1] = experiment: In vivo average survival days of mice infected by Trypanosoma brucei rhodesiense was determined for a period of 60 days at i.p. dose of 20 mg/kg; type: functional; settings: route intraperitoneal
[2] = tested on: Trypanosoma brucei rhodesiense; experiment: In vitro inhibitory activity against Trypanosoma brucei rhodesiense; type: functional, organism-based
Mus musculus [3] = experiment: Number of mice (out of 4) cured from Trypanosoma brucei rhodesiense infection which are parasite free for 60 days was determined at i.p. dose of 20 mg/kg; type: functional; settings: route intraperitoneal
Mus musculus [4] = experiment: Number of mice (out of 4) cured from Trypanosoma brucei rhodesiense infection which are parasite free for 60 days was determined at p.o. dose of 100 mg/kg; type: functional; settings: route oral
Mus musculus [5] = experiment: In vivo average survival days of mice infected by Trypanosoma brucei rhodesiense was determined for a period of 60 days at p.o. dose of 100 mg/kg; type: functional; settings: route oral
Mus musculus [6] = experiment: In vivo average survival days of mice infected by Trypanosoma brucei rhodesiense was determined for a period of 60 days at i.p. dose of 5 mg/kg; type: functional; settings: route intraperitoneal
Mus musculus [7] = experiment: Number of mice (out of 4) cured from Trypanosoma brucei rhodesiense infection which are parasite free for 60 days was determined at i.p. dose of 5 mg/kg; type: functional; settings: route intraperitoneal
Mus musculus [8] = experiment: In vivo average survival days of mice infected by Trypanosoma brucei rhodesiense was determined for a period of 60 days at p.o. dose of 75 mg/kg; type: functional; settings: route oral
Mus musculus [9] = experiment: Number of mice (out of 4) cured from Trypanosoma brucei rhodesiense infection which are parasite free for 60 days was determined at p.o. dose of 75 mg/kg; type: functional; settings: route oral
Mus musculus [10] = experiment: Number of mice (out of 4) cured from Trypanosoma brucei rhodesiense infection which are parasite free for 60 days was determined at p.o. dose of 50 mg/kg; type: functional; settings: route oral
Mus musculus [11] = experiment: In vivo average survival days of mice infected by Trypanosoma brucei rhodesiense was determined for a period of 60 days at p.o. dose of 50 mg/kg; type: functional; settings: route oral
Mus musculus [12] = experiment: Number of mice (out of 4) cured from Trypanosoma brucei rhodesiense infection which are parasite free for 60 days was determined at i.p. dose of 10 mg/kg; type: functional; settings: route intraperitoneal
Mus musculus [13] = experiment: In vivo average survival days of mice infected by Trypanosoma brucei rhodesiense was determined for a period of 60 days at i.p. dose of 10 mg/kg; type: functional; settings: route intraperitoneal

SMILES	IC50 (Plasmodium falciparum) [nM]	ΔTm (Nucleic Acid)	Survival (Mus musculus [1]) [days]	IC50 [2] [nM]	No. of cures (Mus musculus [3])	also measured
N=C(N)c1ccc(-c2ccc(-c3cn4cc(C(=N)N)ccc4n3)cc2)cc1	43	24.2	>60	1	4	–
N=C(N)c1ccc(-c2ccc(-c3cn4cc(C(=N)N)ccc4n3)o2)cc1	14	26.2	>60	63	4	–
Cc1cc(C(=N)N)cn2cc(-c3cccc(-c4ccc(C(=N)N)cc4)c3)nc12	86	> 27	>50	49	3	–
Cc1cc(C(=N)N)cn2cc(-c3ccc(-c4ccc(C(=N)N)cc4)o3)nc12	88	> 27	>60	6	4	–
N=C(N)c1ccc(-c2ccc(-c3ccc(C(=N)N)cc3)o2)cc1 [FURAMIDINE]	–	–	–	–	0	–
CONC(=N)c1ccc(-c2ccc(-c3cn4cc(C(=N)NOC)ccc4n3)o2)cc1	2800	–	–	3000	–	No. of cures (Mus musculus [4]): 2; Survival (Mus musculus [5]): >39.5 days
CONC(=N)c1ccc(-c2ccc(-c3ccc(C(=N)NOC)cc3)o2)cc1 [PAFURAMIDINE]	15.5	25	–	4.5	–	No. of cures (Mus musculus [4]): 4; Survival (Mus musculus [5]): >60 days
N=C(N)c1ccc(-c2cccc(-c3cn4c(n3)CCC(C(=N)N)C4)c2)cc1 (stereo not drawn)	86	19.1	–	226	–	–
N=C(N)c1ccc(-c2ccc(-c3cn4c(n3)CCC(C(=N)N)C4)o2)cc1 (stereo not drawn)	1200	15.6	>60	52	4	Survival (Mus musculus [6]): >51 days; No. of cures (Mus musculus [7]): 2
CONC(=N)c1ccc(-c2ccc(-c3cn4cc(C(=N)NOC)ccc4n3)cc2)cc1	395	0.3	–	5300	–	Survival (Mus musculus [8]): 20 days; No. of cures (Mus musculus [9]): 0
N=C(NO)c1ccc(-c2ccc(-c3cn4cc(/C(N)=N/O)ccc4n3)o2)cc1	1600	–	–	2200	–	No. of cures (Mus musculus [10]): 1; Survival (Mus musculus [11]): >19.5 days
N=C(N)c1ccc(OCCCCCOc2ccc(C(=N)N)cc2)cc1 [PENTAMIDINE]	–	–	–	–	0	–
N=C(NO)c1ccc(-c2ccc(-c3cn4cc(/C(N)=N/O)ccc4n3)cc2)cc1	521	–	–	–	–	Survival (Mus musculus [8]): 28 days; No. of cures (Mus musculus [9]): 0
N=C(N)c1ccc(-c2ccc(-c3cn4c(n3)CCC(C(=N)N)C4)cc2)cc1 (stereo not drawn)	14	21.3	–	116	–	No. of cures (Mus musculus [12]): 3; Survival (Mus musculus [13]): >51.5 days
N=C(N)c1ccc(-c2cccc(-c3cn4cc(C(=N)N)ccc4n3)c2)cc1	107	> 27	>60	22	4	–
